Source: the NIST ThermoML archive (doi:10.1016/j.jct.2011.01.014)
± gives the expanded uncertainty stated by the source.

Assay: xn = mol fraction of the nth substance listed
Details: 101 kPa, Liquid; for speed of sound: sound velocity cell; for mass density: Vibrating tube method

CC(=O)[O-].[NH3+]CCO [2-hydroxyethylammonium acetate] + O
Details | mass density, 298.15 K [kg/m3] | mass density, 300.65 K [kg/m3] | mass density, 303.15 K [kg/m3] | mass density, 305.65 K [kg/m3] | speed of sound, 295.65 K [m/s] | speed of sound, 298.15 K [m/s] | speed of sound, 300.65 K [m/s] | speed of sound, 303.15 K [m/s]
x1 = 0.051 | 1051.43 ± 0.83 | 1050.38 ± 0.82 | 1049.3 ± 0.82 | 1048.18 ± 0.81 | – | 1685.5 ± 2.8 | 1687.2 ± 2.8 | 1688.6 ± 2.7
x1 = 0.1019 | 1080.72 ± 0.41 | 1079.57 ± 0.41 | 1078.39 ± 0.41 | 1077.21 ± 0.4 | – | 1766.7 ± 1.4 | 1765.8 ± 1.4 | 1764.8 ± 1.4
x1 = 0.1963 | 1111.36 ± 0.3 | 1110.06 ± 0.3 | 1108.74 ± 0.3 | 1107.43 ± 0.3 | – | 1827 ± 1.3 | 1823.9 ± 1.2 | 1820.6 ± 1.2
x1 = 0.2894 | 1125.89 ± 0.32 | 1124.53 ± 0.32 | 1123.17 ± 0.32 | 1121.8 ± 0.32 | – | 1835.5 ± 1.4 | 1831.6 ± 1.4 | 1827.5 ± 1.4
x1 = 0.3959 | 1135.24 ± 0.49 | 1133.86 ± 0.49 | 1132.47 ± 0.48 | 1131.08 ± 0.48 | – | 1825.2 ± 1.6 | 1820.6 ± 1.6 | 1816 ± 1.6
x1 = 0.5016 | 1140.33 ± 0.71 | 1138.94 ± 0.71 | 1137.56 ± 0.71 | 1136.16 ± 0.71 | – | 1814.2 ± 1.9 | 1809.4 ± 1.9 | 1804.6 ± 1.9
x1 = 0.5821 | 1142.82 ± 0.93 | 1141.44 ± 0.92 | 1140.07 ± 0.92 | 1138.68 ± 0.92 | 1816.5 ± 2 | 1811.6 ± 2 | 1806.7 ± 2 | 1801.9 ± 2
x1 = 0.6837 | 1144.63 ± 1.2 | 1143.27 ± 1.2 | 1141.9 ± 1.2 | 1140.52 ± 1.2 | 1808.4 ± 2.3 | 1803.3 ± 2.3 | 1798.2 ± 2.3 | 1793.2 ± 2.3
x1 = 0.7763 | 1146.5 ± 1.6 | 1145.08 ± 1.6 | 1143.67 ± 1.6 | 1142.31 ± 1.6 | 1807.5 ± 2.6 | 1802.1 ± 2.6 | 1796.9 ± 2.6 | 1791.7 ± 2.6
x1 = 0.8761 | 1147.91 ± 2 | 1146.49 ± 2 | 1145.07 ± 2 | 1143.65 ± 2 | 1798.7 ± 2.8 | 1793 ± 2.8 | 1787.4 ± 2.8 | 1782 ± 2.8
x1 = 0.9137 | 1148.26 ± 2.1 | 1146.85 ± 2.1 | 1145.43 ± 2.1 | 1144.01 ± 2.1 | 1800.5 ± 2.9 | 1794.7 ± 2.9 | 1789.1 ± 2.9 | 1783.6 ± 2.9
x1 = 1 | 1149.04 ± 2.5 | 1147.63 ± 2.5 | 1146.22 ± 2.5 | 1144.8 ± 2.5 | 1796.8 ± 3.2 | 1790.7 ± 3.2 | 1784.8 ± 3.2 | 1779 ± 3.2
